From patent publication US4423029A, “(S)-3-Amino-4-[(S,S)-1-(1-hydroxyethyl)alkyl amino]-4-oxo-butyric acid compounds suitable as non-nutritive sweetners” (The Procter & Gamble Company, priority 1981, dated 1983)
Converted amounts (≈) assume the structure as drawn. “Also recorded” adds a separate entry of the source. Read-outs that look alike come from different tables or passages of the source. Blank lines part the entries; values can stand above or below the compound they belong to. Residues, ends and D or L forms follow the SMILES beside them.

Legend:
[1] = Hydrolytic stability in aqueous phosphate buffer; format: physicochemical; conditions: for remaining at 360 h / half-life: 0.02 m phosphate buffer; for remaining at 360 h: read-out: % Remaining After 15 Days; for half-life: 0.02 M phosphate
Method: Stability tests were performed on the compound of formula (II) to determine the sweetener's resistance to hydrolysis under varying conditions.
The tests were performed using solutions of (II) in aqueous phosphate buffer, 0.02 M, at pH 3.5 and 6.9. The solutions were incubated at ~43° C. (110° F.), ~54° C. (130° F.), and ~66° C., (150° F.) for up to 32 days.
Samples from the test solutions were withdrawn at regular intervals and analyzed by reversed-phase high performance liquid chromatography for remaining intact (II), using the following conditions:
Column: 25 cm×0.4 cm I.D. stainless steel packed with Lichrosorb RP-18, 5μ particle size.
Mobile phase: Acetonitrile/0.01 M phosphate buffer (155/845 v/v), pH 6.
Detection: UV absorbance at 220 nm (~2200 Å). Results were quantified by comparison with standard solutions kept frozen during the tests. Peak heights were measured for replicate injections.
By use of the Arrhenius equation, [formula] where k is the specific reaction velocity, T is the absolute temperature (°K.), A is the activation energy constant, t is time, and R is the gas law constant, change in the rate of a first-order chemical reaction with temperature can be calculated. The half-life of (II) at ambient temperature and pH 6.9 is estimated to be 760 days (>2 yrs).

[2] = Amide bond cleavage by rat intestine homogenate; format: in vitro ADME; conditions: pH 7.0, 37° C., up to two hours, standardized to Aspartame/rat = 100
Description: (§1) This aspartic acid has the same caloric value as sugar, on a per-gram basis. These aspartic acid amide sweeteners are therefore not non-nutritive, but, rather, low calorie. In addition, the other molecular fragment released as a result of amide cleavage is frequently a non-physiological amine. It was therefore considered appropriate to gauge the rate of amide cleavage of compound (II) by digestive enzymes in evaluating both the calorigenic and the toxicologic potential of compounds of this invention.
(§2) Assays were performed in the following manner:
(§3) Aliquots of four mM solutions of test compounds in 100 mM potassium phosphate buffer solution at pH 7.0 were incubated at 37° C. (98.6° F.) for up to two hours with a standardized amount of animal intestine homogenate containing digestive enzymes. At the end of the incubation period, the enzymes were inactivated by boiling and the extent of amide bond hydrolysis was quantified by measurement of free L-aspartic acid in the solution. This was done by incubating a sample of the test solution with enzymes and substrates that convert L-aspartate to L-malate with concomitant oxidation of a pyridine nucleotide having a characteristic absorbance at 340 nanometers. The decrease in optical density at this wavelength is proportional to the amount of L-aspartate generated by amide bond hydrolysis.

[3] = Amide bond cleavage by monkey intestine homogenate; format: in vitro ADME; conditions: pH 7.0, 37° C., up to two hours, standardized to Aspartame/rat = 100
Description: as §1, §2, §3

[4] = cited from earlier work; for taste: in words; for sweetness intensity: L-aspartic acid alkyl amides, Mazur et al. 1970
[5] = in words; cited from earlier work
[6] = cited from earlier work; for half-life: pH 4
[7] = in words; cited from earlier work; remark: listed apart in the source
[8] = Taste evaluation (human taste panel, comparison with sucrose standards); format: in vivo, Male subjects; conditions: for taste / sweetness quality: in words
Method: The taste quality and sweetness intensity of the compounds of the present invention were determined by the following procedure.
Male subjects were selected at random from a group of about 20 persons who had previously been selected on the basis of proven tasting acuity, i.e., persons who could easily recognize the four basic tastes (sweet, sour, bitter and salty) and who were adept at quantifying their own physiological response numerically. The subjects were asked to taste and expectorate about 10 ml of a sample at about 22° C. containing dissolved test material. The subjects were then asked to compare the sweetness (and other taste qualities) of the test solution with four or five standard coded samples which contained increasing amounts of sucrose. Sweetness intensity of the unknown material was recorded by the subject making a mark on a coded closed linear scale at a point they considered equal in sweetness among the standards; interpolation between standards was encouraged. After completion of the panel, a four or five point (1-4 or 1-5, depending on the number of standards) numeric scale was superimposed on the coded linear scales to obtain numerical data; data were averaged and recorded to the nearest 0.25 unit. Equivalent sucrose sweetness was determined by referring to graphs of (w/v) sucrose concentration and standards versus a linear numeric scale.
Sweetness intensity was calculated by dividing the concentration (w/v) of perceived sweetness by the concentration (w/v) of test material required to produce that sweetness. Most taste comparisons were made in the range of 5-10% sucrose sweetness.
The five point scale with standards ranging from 1.37% (0.040 M) to 11.97% (0.35 M) sucrose usually sufficed to bracket the sweet intensity of a test sample. However, in the cases of beverage prototypes it was more meaningful to use prototype beverage solutions containing 2.5, 5.0, 10.0, 15.0 and 20.0% sucrose as standards. In all cases, evaluation of sweetness intensity in terms of sucrose equivalents was made with reference to graphs which related sucrose concentration and standard prototypes to the particular (arbitrary) scale units employed.
In tests in which taste quality was estimated, the subjects were asked to describe the initial taste and aftertaste in terms of percent sweet, sour, bitter, salty and "other", totalling 100%. In all tests, bottled spring water was used for rinsing between samples.

[9] = Aqueous solubility and calculated maximum effective sweetening power; format: physicochemical; conditions: for solubility / Calculated Maximum Effective Sweetening Power: approximate (~)
Method: The solubility of compound (II) was determined in standard fashion. Water at pH 7 and 20° C. was used, except where indicated.
Because sweetness tends to plateau at higher concentrations of high intensity sweeteners, these calculations overestimate the actual sweetening power of the compounds of this invention.

[10] = Resistance to hydrolysis by digestive enzymes (statement in words); format: in vitro ADME, animal
Description: as §1, §2
as §3, with “hydrolysis. […]” for “hydrolysis.”

[11] = pH 3.5, .02M Phosphate Buffer at 54° C.
[12] = pH 7, .02M Phosphate Buffer at 54° C.

- remaining at 360 h [1, 11]: 88%
- remaining at 360 h [1, 12]: 72%
SMILES: CC(C)CCC(CO)NC(=O)[C@@H](N)CC(=O)O (some centres unmarked)

- Relative rate of amide bond cleavage [2]: 19
SMILES: N[C@@H](CC(=O)O)C(=O)N[C@H](CO)Cc1ccccc1

- Relative rate of amide bond cleavage [2]: 11
SMILES: CC(C)C[C@@H](CO)NC(=O)[C@@H](N)CC(=O)O

- Relative rate of amide bond cleavage [2]: 35
- Relative rate of amide bond cleavage [3]: 103
SMILES: CC(C)CC[C@@H](CO)NC(=O)[C@@H](N)CC(=O)O

- Relative rate of amide bond cleavage [2]: 35
SMILES: CCCCCC(CO)NC(=O)[C@@H](N)CC(=O)O (some centres unmarked)

- Relative rate of amide bond cleavage [2]: 38
- Relative rate of amide bond cleavage [3]: 68
SMILES: CC(C)CCCC(C)NC(=O)[C@@H](N)CC(=O)O (some centres unmarked)

- Relative rate of amide bond cleavage [2]: 4
SMILES: N[C@@H](CC(=O)O)C(=O)Nc1ccc2ccccc2c1

SMILES: CC(C)CC(C)NC(=O)[C@@H](N)CC(=O)O (some centres unmarked) [1,3-dimethylbutyl]
- taste [4]: bitter

SMILES: CCC(C)CC(C)NC(=O)[C@@H](N)CC(=O)O (some centres unmarked) [1,3-dimethylpentyl]
- sweetness intensity [4]: 1-2 X sucrose
- taste [4]: sweet

SMILES: CC(C)CCC(C)NC(=O)[C@@H](N)CC(=O)O (some centres unmarked) [1,4-dimethylpentyl]
- sweetness intensity [4]: 50-100 X sucrose
- taste [4]: sweet

SMILES: CC(C)CCCC(C)N (centres unmarked) [1,5-dimethylhexylamine]
- pharmacological activity [5]: vasopressor and myocardial stimulant activity

SMILES: CCCC(C)NC(=O)[C@@H](N)CC(=O)O (some centres unmarked) [1-methylbutyl]
- taste [4]: tasteless

SMILES: CCCCCCC(C)NC(=O)[C@@H](N)CC(=O)O (some centres unmarked) [1-methylheptyl]
- sweetness intensity [4]: 10 X sucrose
- taste [4]: sweet

SMILES: CCCCCC(C)NC(=O)[C@@H](N)CC(=O)O (some centres unmarked) [1-methylhexyl]
- sweetness intensity [4]: 20-50 X sucrose
- taste [4]: sweet

SMILES: CCCCC(C)NC(=O)[C@@H](N)CC(=O)O (some centres unmarked) [1-methylpentyl]
- sweetness intensity [4]: 30 X sucrose
- taste [4]: sweet

SMILES: CC(C)CCCNC(=O)[C@@H](N)CC(=O)O [4-methylpentyl]
- taste [4]: tasteless

- Relative rate of amide bond cleavage [2]: 100
- Relative rate of amide bond cleavage [3]: 157
SMILES: COC(=O)[C@H](Cc1ccccc1)NC(=O)[C@@H](N)CC(=O)O [Aspartame, L-aspartyl-L-phenylalanine methyl ester] (H-Asp-Phe-OMe)
- taste [4]: high quality sweetness; also recorded: free of unpleasant aftertaste
- half-life ([6]; 40° C.): 68 days
- half-life ([6]; 55° C.): 16 days
- stability in aqueous media ([6]; in words): hydrolyzes rapidly in aqueous media to non-sweet compounds
- % Remaining After 15 Days ([6]; pH 3.5, 54° C., comparable data from literature): 50%
- % Remaining ([6]; pH 7, 54° C., at 1 day, comparable data from literature): 0%
- hydrolysis by gut enzymes [7]: readily converted to L-aspartic acids by enzymes in the gut

SMILES: CCCC(CC)NC(=O)[C@@H](N)CC(=O)O (some centres unmarked) [Compound 1-ethylbutyl]
- taste [4]: bitter

- solubility ([9]; Water, pH 7, 20° C.): 30 to 40 mg/mL (≈ 115 to 154 mM)
- solubility in water ([9]; in words): surprisingly soluble in water
- solubility ([9]; lemonade, ditto mark): 30 to 40 mg/mL (≈ 115 to 154 mM)
- half-life ([1]; pH 3.5, 54° C., pH start 3.5 (end 4.3)): 57 days
- half-life ([1]; pH 3.5, 66° C., pH start 3.5 (end 4.8)): 17 days
- half-life ([1]; pH 6.9, 43° C., pH start 6.9 (end 6.8)): 148 days
- half-life ([1]; pH 6.9, 54° C., pH start 6.9 (end 6.09)): 64 days
- half-life ([1]; pH 6.9, 66° C., pH start 6.9 (end 7.5)): 22 days
- remaining at 360 h [1, 11]: 82%
- remaining at 360 h [1, 12]: 86%
- Relative rate of amide bond cleavage [2]: 0
- Relative rate of amide bond cleavage [3]: 0
- resistance to enzymatic hydrolysis [10]: resistant to enzymatic hydrolysis
SMILES: CC(C)CC[C@H](NC(=O)[C@@H](N)CC(=O)O)[C@H](C)O [Compound II, (S)-3-amino-4-[(S,S)-1-(1-hydroxyethyl)-4-methyl-pentylamino]-4-oxo-butyric acid]
- sweetness intensity ([8]; Lemonade): 85 × sucrose
- sweetness intensity ([8]; Water): 60 × sucrose
- sweetness relative to sucrose ([8]; at an 8% sucrose sweetness level): approximately 60 times
- taste / sweetness quality [8]: sweetness quality comparable to sucrose; also recorded: sweet in both aqueous solution and granular form
- taste / sweetness quality ([8]; listed as (S,S,S) compound): sweet
- Calculated Maximum Effective Sweetening Power ([9]; Water): 180-240 g % sucrose equivalent
- Calculated Maximum Effective Sweetening Power ([9]; lemonade): 255-340 g % sucrose equivalent
- stability in aqueous media ([1]; in words): stable in moderately alkaline, neutral and moderately acidic aqueous media
- reaction order of hydrolysis ([1]; log (% (II) intact) versus time): consistent with a reaction following first order kinetics

SMILES: COc1ccc(CCC(=O)c2c(O)cc(O[C@@H]3O[C@H](CO)[C@@H](O)[C@H](O)[C@H]3O[C@@H]3O[C@@H](C)[C@H](O)[C@@H](O)[C@H]3O)cc2O)cc1O [Neohesperidin dihydrochalcone]
- taste [4]: the sweetness is slow to develop and it has a licorice-like aftertaste

SMILES: CCCCCCCNC(=O)[C@@H](N)CC(=O)O [heptyl]
- sweetness intensity [4]: 1-2 X sucrose
- taste [4]: sweet

SMILES: CCCCCCNC(=O)[C@@H](N)CC(=O)O [hexyl]
- sweetness intensity [4]: 1-2 X sucrose
- taste [4]: sweet

SMILES: O=C1NS(=O)(=O)c2ccccc21 [saccharin]
- taste [4]: bitter aftertaste
